According to patent US8168597B2, “Method for treating cystic fibrosis” (Inspire Pharmaceuticals, Inc., priority 2008, dated 2012):

B1: Pulmozyme: CF medication taken as usual standard of care (alfa dornase) (protein, UniProt P24855 23-282, looked up)
Deoxyribonuclease-1: LKIAAFNIQTFGETKMSNATLVSYIVQILSRYDIALVQEVRDSHLTAVGKLLDNLNQDAPDTYHYVVSEPLGRNSYKERYLFVYRPDQVSAVDSYYYDDGCEPCGNDTFNREPAIVRFFSRFTEVREFAIVPLHAAPGDAVAEIDALYDVYLDVQEKWGLEDVMLMGDFNAGCSYVRPSQWSSIRLWTSPTFQWLIPDSADTTATPTHCAYDRIVVAGMLLRGAVVPDSALPFNFQAAYGLSDQLAQAISDHYPVEVMLK

Tested on: patients with mild CF lung disease
Assay: Multi-center, double-blind, randomized efficacy and safety study; change in lung function (FEV1) from baseline to Week 24
Type: in vivo, human
Conditions: for FEV1 Change from baseline in Liters, Mean (Table 2): subgroups that did not take pulmozyme or inhaled antibiotics; for FEV1 Change from baseline in Liters, Mean (Table 3): pulmozyme/macrolide subgroups
Procedure: This is a multi-center, double-blind, randomized, efficacy and safety study of denufosol in patients with mild CF lung disease. Approximately 350 patients were enrolled and randomly assigned to receive one of two treatments, 60 mg denufosol TID or placebo TID, with approximately 175 patients assigned to each treatment group. Patients were administered study drug (denufosol) or placebo using the PARI LC STAR™ nebulizer and PART PRONEB Ultra™ compressor. At the end of the 24-week double-blind, placebo-controlled treatment period, placebo patients received 60 mg denufosol for a 24-week safety extension period. All patients on denufosol during the first 24 weeks continued to receive denufosol during the 24-week safety extension. Upon completion of study participation or discontinuation from study treatment, all patients were scheduled for a 1-week follow-up visit.
In general, CF patients took many medications as their usual standard of care. This study was designed to randomly assign patients either to denufosol or placebo on top of their usual standard of care. […] Patients were instructed whenever possible to use these medications consistently throughout the study.
All patients were instructed to inhale the study drug using normal tidal breathing via the PARI LC STAR™ reusable nebulizer and the PARI PRONEB™ Ultra compressor. A dose was considered complete after 15 minutes of inhalation or when the nebulizer sputters. Study drug was taken TID at the same time each day.
Primary efficacy endpoint was change in lung function, as measured by FEV1 (L), from baseline to Week 24 end point. Missing Week 24 data for patients who withdrew prior to Week 24 were imputed from the last available observation carried forward. Secondary efficacy endpoints included the following: time to first pulmonary exacerbation during the 24-week placebo-controlled treatment period; incidence of pulmonary exacerbations during the 24-week placebo-controlled treatment period; number of pulmonary exacerbations/time at risk (incidence density) during the 24-week placebo-controlled treatment period; change in lung function, as measured by FEV1 (L) from baseline to Weeks 4 and 12, and FVC (L) and FEF25%-75% (L/sec) from baseline to Weeks 4, 12, 24, and the end point. Other secondary efficacy endpoints include incidence of IV antibiotic use during the 24-week placebo-controlled treatment period; number of days of IV antibiotic use during the 24-week placebo-controlled treatment period; incidence of new use of antipseudomonal antibiotics during the 24-week placebo-controlled treatment period; incidence of hospitalizations/ER visits for a respiratory-related complaint during the 24-week placebo-controlled treatment period; number of days spent in the hospital for a respiratory-related complaint during the 24-week placebo-controlled treatment period; changes from baseline to Weeks 12 and 24 in Health-related Quality of Life as measured by the Cystic Fibrosis Questionnare and the Feeling Thermometer; and changes in utility assessment from baseline to Weeks 12 and 24 as measured by the Health Utilities Index; number of CF-related days lost from work or school during the 24-week placebo-controlled treatment period; and responses at Week 24 to the Patient Questionnaire.

| Molecule | FEV1 Change from baseline in Liters, Mean (Table 2) (baseline to Week 24) | adjusted means for change in lung function, as measured by FEV1, from baseline to Week 24 (macrolide users (97% azithromycin), 60 mg denufosol TID by inhalation, p-value 0.047 vs placebo group) | improvement in FEV1 change in the macrolide group when treated with denufosol (vs placebo group) (macrolide users, baseline to Week 24) | FEV1 Change from baseline in Liters, Mean (Table 3) (baseline to Week 24) |
| --- | --- | --- | --- | --- |
| Nc1ccn([C@H]2C[C@H](O)[C@@H](COP(=O)(O)OP(=O)(O)OP(=O)(O)OP(=O)(O)OC[C@H]3O[C@@H](n4ccc(=O)[nH]c4=O)[C@H](O)[C@@H]3O)O2)c(=O)n1 [Denufosol, P^1-(uridine 5′-)-P^4-(2′-deoxycytidine 5′-) tetraphosphate] | 0.0494 L | 0.0288 L | +0.0745 L | – |
| CC[C@H]1OC(=O)[C@H](C)[C@@H](O[C@H]2C[C@@](C)(OC)[C@@H](O)[C@H](C)O2)[C@H](C)[C@@H](O[C@@H]2O[C@H](C)C[C@H](N(C)C)[C@H]2O)[C@](C)(O)C[C@@H](C)CN(C)[C@H](C)[C@@H](O)[C@]1(C)O [Macrolide (Azithromycin), azithromycin, reference compound] | 0.0430 L | – | – | 0.0430 L |
| B1 | – | – | – | 0.0659 L |
